Measured values reported in patent publication US20240358693A1, “METHODS OF TREATING PAIN” (Aisa Pharma, Inc., priority 2023, published 2024).

System: participants with SSc-RP
Assay: Average duration of weekly RP attacks (minutes)
Format: in vivo, human
Details: Tadalafil 5 mg
From the text: The absolute change in average duration of weekly RP attacks from baseline to the end of each dosing period was and will be a secondary outcome variable. The sponsor-developed participant-informed diary was and will be used to record data. Average duration of weekly RP attacks is defined as the total duration of RP attacks divided by total number of RP attacks within the last 7 days of each dosing period. Total duration of RP attacks during the last 7 days of screening period divided by the total number of RP attacks will be used as baseline for the analysis of all periods. The variable will be calculated similar to frequency data as before.

[1] = n=1, Excluding Outliers, ITT Part A
[2] = Baseline RCS subgroup 2 (unnamed), ITT Part A
[3] = Excluding Outliers, Baseline RCS subgroup 2 (unnamed), ITT Part A
[4] = Excluding Outliers, ITT Population - Part A
[5] = Excluding Outliers, by Baseline RCS, subgroup 2, ITT Population - Part A
[6] = by Baseline RCS, subgroup 2, ITT Population - Part A

CN1CC(=O)N2[C@H](c3ccc4c(c3)OCO4)c3[nH]c4ccccc4c3C[C@@H]2C1=O [Tadalafil, tadalafil]
Average Duration of Weekly Symptomatic RP Attacks, Change from Baseline, Mean [1]: -4.58 min | Average Duration of Weekly Symptomatic RP Attacks, Change from Baseline, Median [1]: -4.58 min | Average Duration of Weekly Symptomatic RP Attacks, Mean [1]: 6.00 min | Average Duration of Weekly Symptomatic RP Attacks, Median [1]: 6.00 min | Average Duration of Weekly Symptomatic RP Attacks, Percent Change from Baseline, Mean [1]: −43.31% | Average Duration of Weekly Symptomatic RP Attacks, Percent Change from Baseline, Median [1]: −43.31% | Average Duration of Weekly Symptomatic RP Attacks, Change from Baseline, Mean (n=2, ITT Part A): 140.74 min | Average Duration of Weekly Symptomatic RP Attacks, Change from Baseline, Median (n=2, ITT Part A): 140.74 min | Average Duration of Weekly Symptomatic RP Attacks, Mean (n=2, ITT Part A): 412.29 min | Average Duration of Weekly Symptomatic RP Attacks, Median (n=2, ITT Part A): 412.29 min | Average Duration of Weekly Symptomatic RP Attacks, Percent Change from Baseline, Mean (n=2, ITT Part A): 5.21% | Average Duration of Weekly Symptomatic RP Attacks, Percent Change from Baseline, Median (n=2, ITT Part A): 5.21% | Average Duration of Weekly Symptomatic RP Attacks, Change from Baseline, Mean [2]: 140.74 min | Average Duration of Weekly Symptomatic RP Attacks, Change from Baseline, Median [2]: 140.74 min | Average Duration of Weekly Symptomatic RP Attacks, Mean [2]: 412.29 min | Average Duration of Weekly Symptomatic RP Attacks, Median [2]: 412.29 min | Average Duration of Weekly Symptomatic RP Attacks, Percent Change from Baseline, Mean [2]: 5.21% | Average Duration of Weekly Symptomatic RP Attacks, Percent Change from Baseline, Median [2]: 5.21% | Average Duration of Weekly Symptomatic RP Attacks, Change from Baseline, Mean [3]: -4.58 min | Average Duration of Weekly Symptomatic RP Attacks, Change from Baseline, Median [3]: -4.58 min | Average Duration of Weekly Symptomatic RP Attacks, Mean [3]: 6.00 min | Average Duration of Weekly Symptomatic RP Attacks, Median [3]: 6.00 min | Average Duration of Weekly Symptomatic RP Attacks, Percent Change from Baseline, Mean [3]: −43.31% | Average Duration of Weekly Symptomatic RP Attacks, Percent Change from Baseline, Median [3]: −43.31% | Average Duration of Weekly RP Attacks (All Attacks) Change from Baseline, Mean [4]: -4.98 min | Average Duration of Weekly RP Attacks (All Attacks) Change from Baseline, Median [4]: -4.98 min | Average Duration of Weekly RP Attacks (All Attacks) Percent Change from Baseline, Mean [4]: −45.55% | Average Duration of Weekly RP Attacks (All Attacks) Percent Change from Baseline, Median [4]: −45.55% | Average Duration of Weekly RP Attacks (All Attacks), Mean [4]: 5.95 min | Average Duration of Weekly RP Attacks (All Attacks), Median [4]: 5.95 min | Average Duration of Weekly RP Attacks (All Attacks) Change from Baseline, Mean [5]: -4.98 min | Average Duration of Weekly RP Attacks (All Attacks) Change from Baseline, Median [5]: -4.98 min | Average Duration of Weekly RP Attacks (All Attacks) Percent Change from Baseline, Mean [5]: −45.55% | Average Duration of Weekly RP Attacks (All Attacks) Percent Change from Baseline, Median [5]: −45.55% | Average Duration of Weekly RP Attacks (All Attacks), Mean [5]: 5.95 min | Average Duration of Weekly RP Attacks (All Attacks), Median [5]: 5.95 min | Average Duration of Weekly RP Attacks (All Attacks) Change from Baseline, Mean (ITT Part A): 91.80 min | Average Duration of Weekly RP Attacks (All Attacks) Change from Baseline, Median (ITT Part A): 91.80 min | Average Duration of Weekly RP Attacks (All Attacks) Percent Change from Baseline, Mean (ITT Part A): −7.81% | Average Duration of Weekly RP Attacks (All Attacks) Percent Change from Baseline, Median (ITT Part A): −7.81% | Average Duration of Weekly RP Attacks (All Attacks), Mean (ITT Part A): 412.26 min | Average Duration of Weekly RP Attacks (All Attacks), Median (ITT Part A): 412.26 min | Average Duration of Weekly RP Attacks (All Attacks) Change from Baseline, Mean [6]: 91.80 min | Average Duration of Weekly RP Attacks (All Attacks) Change from Baseline, Median [6]: 91.80 min | Average Duration of Weekly RP Attacks (All Attacks) Percent Change from Baseline, Mean [6]: −7.81% | Average Duration of Weekly RP Attacks (All Attacks) Percent Change from Baseline, Median [6]: −7.81% | Average Duration of Weekly RP Attacks (All Attacks), Mean [6]: 412.26 min | Average Duration of Weekly RP Attacks (All Attacks), Median [6]: 412.26 min
